Test [1] deals with Tyrosine-protein kinase ABL1 (Homo sapiens, UniProt P00519). Nature of the test: Inhibition of phosphorylated ABL1 (unknown origin) at 1 uM by Ambit Kinomescan binding assay relative to control; values are per cent of control.
The target of test [2] is Serine/threonine-protein kinase 4 (Homo sapiens) (UniProt Q13043). Nature of the test: Inhibition of MST1 (unknown origin) at 1 uM by Ambit Kinomescan binding assay relative to control.
For test [3], the target named is Serine/threonine-protein kinase ULK2 (Homo sapiens) (UniProt Q8IYT8). Nature of the test: Inhibition of ULK2 (unknown origin) at 1 uM by Ambit Kinomescan binding assay relative to control.
The target of test [4] is Mitogen-activated protein kinase 14 (Homo sapiens, UniProt Q16539). The experiment in a line: Inhibition of p38 alpha in human A-375 cells at 0.05 uM by KiNativ Profiling analysis relative to control. The class given is cell-based.
For test [5], the target named is Mitogen-activated protein kinase kinase kinase 1 (Homo sapiens) (UniProt Q13233). The experiment in a line: Inhibition of MAP3K1 (unknown origin) at 1 uM by Ambit Kinomescan binding assay relative to control; values are per cent of control.
The target in test [6] is Wee1-like protein kinase (Homo sapiens) (UniProt P30291). The experiment in a line: Inhibition of Wee1 K2 labeling site in human Huh-7 cells at 10 uM by KiNativ Profiling analysis relative to control. The format is cell-based.
In test [7] the target is Dual specificity mitogen-activated protein kinase kinase 2 (Homo sapiens) (UniProt P36507). The experiment in a line: Inhibition of MAP2K2 Lys1 labeling site in human A-375 cells at 0.05 uM by KiNativ Profiling analysis relative to control. The class given is cell-based.
Test [8] concerns the target Non-receptor tyrosine-protein kinase TYK2 (Homo sapiens) (UniProt P29597). Nature of the test: Inhibition of TYK2 domain2 ACT labeling site in human A-375 cells at 0.05 uM by KiNativ Profiling analysis relative to control. The class given is cell-based.
Test [9] deals with Insulin-like growth factor 1 receptor (Homo sapiens) (UniProt P08069). Nature of the test: Inhibition of IGF1R (unknown origin) at 10 uM by Ambit Kinomescan binding assay.
The target of test [10] is T1, Serine/threonine-protein kinase Chk1 (Homo sapiens) (UniProt O14757).
T1 sequence (whole entry): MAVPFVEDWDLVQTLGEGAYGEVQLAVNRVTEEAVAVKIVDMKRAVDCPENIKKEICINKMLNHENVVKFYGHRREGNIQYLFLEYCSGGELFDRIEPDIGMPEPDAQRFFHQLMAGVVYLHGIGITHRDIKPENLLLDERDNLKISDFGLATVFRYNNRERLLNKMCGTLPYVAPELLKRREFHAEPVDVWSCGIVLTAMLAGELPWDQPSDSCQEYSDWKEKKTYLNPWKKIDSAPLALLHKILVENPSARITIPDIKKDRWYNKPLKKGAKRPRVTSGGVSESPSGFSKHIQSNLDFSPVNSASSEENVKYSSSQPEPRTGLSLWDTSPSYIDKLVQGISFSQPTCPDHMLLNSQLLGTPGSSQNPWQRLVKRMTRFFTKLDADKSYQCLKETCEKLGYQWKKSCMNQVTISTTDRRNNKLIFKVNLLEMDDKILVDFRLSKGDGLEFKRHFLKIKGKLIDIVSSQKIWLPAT
Nature of the test: Inhibition of CHK1 Lys2 labeling site harbouring DIKPENLLLDERDNLK in human A-375 cells at 0.5 uM by KiNativ Profiling analysis relative to control. The class given is cell-based.

Test [11] addresses Serine/threonine-protein kinase tousled-like 2 (Homo sapiens) (UniProt Q86UE8). The experiment in a line: Inhibition of TLK2 (unknown origin) at 10 uM by Ambit Kinomescan binding assay.
The target of test [12] is Tyrosine-protein kinase CSK (Homo sapiens, UniProt P41240). The experiment in a line: Inhibition of CSK ACT labeling site harbouring VSDFGLTKEASSTQDTGKLPVKWTAPEALR in human Huh-7 cells at 10 uM by KiNativ Profiling analysis relative to control. The class given is cell-based.
Test [13] addresses T2, Receptor-interacting serine/threonine-protein kinase 4 (Homo sapiens) (UniProt P57078).
T2 sequence (whole entry): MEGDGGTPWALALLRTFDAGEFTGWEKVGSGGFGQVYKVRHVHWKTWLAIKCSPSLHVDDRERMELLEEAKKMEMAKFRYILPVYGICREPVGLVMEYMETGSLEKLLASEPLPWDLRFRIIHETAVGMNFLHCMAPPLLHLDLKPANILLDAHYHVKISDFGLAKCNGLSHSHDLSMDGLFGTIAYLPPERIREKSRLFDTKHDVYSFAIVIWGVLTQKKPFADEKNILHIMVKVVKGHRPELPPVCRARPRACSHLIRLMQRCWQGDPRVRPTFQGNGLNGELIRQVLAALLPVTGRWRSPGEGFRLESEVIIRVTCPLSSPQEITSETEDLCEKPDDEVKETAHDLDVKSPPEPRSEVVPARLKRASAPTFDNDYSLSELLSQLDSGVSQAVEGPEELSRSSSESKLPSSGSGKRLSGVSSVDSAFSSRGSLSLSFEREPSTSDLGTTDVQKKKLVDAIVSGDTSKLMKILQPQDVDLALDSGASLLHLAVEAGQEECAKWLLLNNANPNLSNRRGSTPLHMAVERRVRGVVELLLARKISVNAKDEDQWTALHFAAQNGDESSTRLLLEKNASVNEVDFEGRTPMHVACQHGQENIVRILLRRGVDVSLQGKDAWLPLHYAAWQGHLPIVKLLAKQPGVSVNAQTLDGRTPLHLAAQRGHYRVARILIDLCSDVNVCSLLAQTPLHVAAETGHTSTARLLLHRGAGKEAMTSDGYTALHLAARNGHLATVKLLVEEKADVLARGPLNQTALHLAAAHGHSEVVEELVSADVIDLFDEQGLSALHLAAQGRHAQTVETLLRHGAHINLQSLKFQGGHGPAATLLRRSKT
Nature of the test: Inhibition of ANKRD3 Lys1 labeling site in human A-375 cells at 0.05 uM by KiNativ Profiling analysis relative to control. The class given is cell-based.

The target in test [14] is STE20/SPS1-related proline-alanine-rich protein kinase (Homo sapiens) (UniProt Q9UEW8). Nature of the test: Inhibition of STLK3 Lys2 labeling site in human Huh-7 cells at 1 uM by KiNativ Profiling analysis relative to control. The format is cell-based.
For test [15], the target named is Serine/threonine-protein kinase WNK2 (Homo sapiens) (UniProt Q9Y3S1). Nature of the test: Inhibition of Wnk2 Lys2 labeling site in human Huh-7 cells at 1 uM by KiNativ Profiling analysis relative to control. The class given is cell-based.
Test [16] deals with Phosphatidylinositol 4,5-bisphosphate 3-kinase catalytic subunit beta isoform (Homo sapiens) (UniProt P42338). Nature of the test: Inhibition of PIK3CB ATP labeling site harbouring VFGEDSVGVIFKNGDDLR in human Huh-7 cell lysate at 1 uM by KiNativ Profiling analysis relative to control. The class given is subcellular.
The target of test [17] is Serine/threonine-protein kinase Nek6 (Homo sapiens) (UniProt Q9HC98). The experiment in a line: Inhibition of NEK6 Lys2 labeling site harbouring DIKPANVFITATGVVK in human Huh-7 cells at 1 uM by KiNativ Profiling analysis relative to control. The format is cell-based.

Calls of active or inactive are those of the source. No cut-off for these calls is given here.

Non-receptor tyrosine-protein kinase TYK2 (Homo sapiens), sequence (P29597 whole entry, the tested form may be a part): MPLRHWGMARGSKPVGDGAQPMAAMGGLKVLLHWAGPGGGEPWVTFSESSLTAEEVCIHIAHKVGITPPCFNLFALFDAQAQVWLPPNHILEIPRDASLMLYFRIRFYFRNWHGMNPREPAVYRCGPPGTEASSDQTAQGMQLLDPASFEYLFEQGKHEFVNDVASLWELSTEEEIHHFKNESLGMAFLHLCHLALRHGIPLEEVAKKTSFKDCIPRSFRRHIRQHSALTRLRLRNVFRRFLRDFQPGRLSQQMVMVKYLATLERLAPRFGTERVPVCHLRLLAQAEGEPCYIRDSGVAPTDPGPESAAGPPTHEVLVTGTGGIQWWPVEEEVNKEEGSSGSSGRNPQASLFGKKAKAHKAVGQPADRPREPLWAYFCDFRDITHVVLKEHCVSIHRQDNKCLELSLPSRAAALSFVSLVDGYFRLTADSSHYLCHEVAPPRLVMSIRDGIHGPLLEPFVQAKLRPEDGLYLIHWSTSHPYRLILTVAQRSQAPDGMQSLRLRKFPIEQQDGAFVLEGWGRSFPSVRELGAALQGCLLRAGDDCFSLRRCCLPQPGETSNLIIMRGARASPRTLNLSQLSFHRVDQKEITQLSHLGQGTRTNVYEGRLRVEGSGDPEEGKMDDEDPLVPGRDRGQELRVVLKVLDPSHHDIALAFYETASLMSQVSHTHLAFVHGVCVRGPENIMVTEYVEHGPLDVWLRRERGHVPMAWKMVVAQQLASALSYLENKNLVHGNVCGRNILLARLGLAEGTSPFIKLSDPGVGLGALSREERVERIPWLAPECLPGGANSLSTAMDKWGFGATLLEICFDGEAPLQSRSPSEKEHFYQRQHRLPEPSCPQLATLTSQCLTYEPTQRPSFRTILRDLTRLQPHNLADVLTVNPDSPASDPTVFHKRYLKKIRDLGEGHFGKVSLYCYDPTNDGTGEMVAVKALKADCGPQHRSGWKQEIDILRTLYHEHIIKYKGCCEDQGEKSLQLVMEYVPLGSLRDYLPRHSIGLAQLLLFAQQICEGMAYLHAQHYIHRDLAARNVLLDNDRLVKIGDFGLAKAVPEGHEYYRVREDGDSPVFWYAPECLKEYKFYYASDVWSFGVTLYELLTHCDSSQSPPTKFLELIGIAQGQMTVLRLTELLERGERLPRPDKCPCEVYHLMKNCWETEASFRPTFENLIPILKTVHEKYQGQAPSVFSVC
Phosphatidylinositol 4,5-bisphosphate 3-kinase catalytic subunit beta isoform (Homo sapiens), sequence (P42338 whole entry, looked up, canonical isoform): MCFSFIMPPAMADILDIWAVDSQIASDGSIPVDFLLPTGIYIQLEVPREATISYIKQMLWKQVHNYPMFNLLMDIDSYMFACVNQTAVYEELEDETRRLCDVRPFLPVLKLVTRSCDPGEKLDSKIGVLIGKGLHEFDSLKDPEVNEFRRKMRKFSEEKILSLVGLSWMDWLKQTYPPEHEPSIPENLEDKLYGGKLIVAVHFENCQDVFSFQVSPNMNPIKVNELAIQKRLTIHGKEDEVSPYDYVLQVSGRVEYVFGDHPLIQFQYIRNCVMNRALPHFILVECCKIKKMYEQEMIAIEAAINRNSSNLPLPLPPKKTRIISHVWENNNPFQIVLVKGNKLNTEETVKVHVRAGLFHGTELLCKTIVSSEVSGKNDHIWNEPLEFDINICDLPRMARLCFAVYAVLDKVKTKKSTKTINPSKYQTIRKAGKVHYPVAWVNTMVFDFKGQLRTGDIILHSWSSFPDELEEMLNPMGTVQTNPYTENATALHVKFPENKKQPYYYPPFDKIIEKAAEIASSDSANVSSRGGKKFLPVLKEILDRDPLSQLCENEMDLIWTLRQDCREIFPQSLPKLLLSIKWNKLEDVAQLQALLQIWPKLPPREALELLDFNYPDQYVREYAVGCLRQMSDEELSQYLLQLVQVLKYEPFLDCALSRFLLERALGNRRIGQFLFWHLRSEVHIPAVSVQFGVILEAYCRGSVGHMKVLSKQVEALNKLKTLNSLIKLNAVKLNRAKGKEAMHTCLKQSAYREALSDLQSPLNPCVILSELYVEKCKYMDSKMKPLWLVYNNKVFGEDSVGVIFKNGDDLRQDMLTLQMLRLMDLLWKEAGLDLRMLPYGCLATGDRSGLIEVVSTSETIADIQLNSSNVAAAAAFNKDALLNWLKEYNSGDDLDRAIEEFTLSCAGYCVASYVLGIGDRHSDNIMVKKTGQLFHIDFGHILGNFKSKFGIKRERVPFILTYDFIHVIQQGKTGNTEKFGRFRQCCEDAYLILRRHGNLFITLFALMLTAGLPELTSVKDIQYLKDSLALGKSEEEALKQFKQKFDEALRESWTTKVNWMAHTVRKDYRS
Wee1-like protein kinase (Homo sapiens), sequence (P30291 whole entry, looked up): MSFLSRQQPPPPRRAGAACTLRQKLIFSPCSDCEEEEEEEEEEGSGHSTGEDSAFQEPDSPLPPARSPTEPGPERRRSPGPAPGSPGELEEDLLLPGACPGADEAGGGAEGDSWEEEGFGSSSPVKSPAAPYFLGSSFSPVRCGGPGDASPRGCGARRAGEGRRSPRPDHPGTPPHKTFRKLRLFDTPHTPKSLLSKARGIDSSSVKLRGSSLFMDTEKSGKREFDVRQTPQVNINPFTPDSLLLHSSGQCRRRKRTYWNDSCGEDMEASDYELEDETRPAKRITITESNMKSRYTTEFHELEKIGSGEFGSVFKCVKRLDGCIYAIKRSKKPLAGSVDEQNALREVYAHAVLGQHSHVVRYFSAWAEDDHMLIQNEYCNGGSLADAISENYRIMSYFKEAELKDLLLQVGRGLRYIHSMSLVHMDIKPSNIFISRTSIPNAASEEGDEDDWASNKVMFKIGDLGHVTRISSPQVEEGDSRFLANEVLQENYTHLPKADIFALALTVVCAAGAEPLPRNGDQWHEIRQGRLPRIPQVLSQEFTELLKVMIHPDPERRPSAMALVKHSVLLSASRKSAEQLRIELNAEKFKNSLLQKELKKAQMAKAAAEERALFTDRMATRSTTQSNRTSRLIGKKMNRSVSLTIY
Dual specificity mitogen-activated protein kinase kinase 2 (Homo sapiens), sequence (P36507 whole entry, the tested form may be a part): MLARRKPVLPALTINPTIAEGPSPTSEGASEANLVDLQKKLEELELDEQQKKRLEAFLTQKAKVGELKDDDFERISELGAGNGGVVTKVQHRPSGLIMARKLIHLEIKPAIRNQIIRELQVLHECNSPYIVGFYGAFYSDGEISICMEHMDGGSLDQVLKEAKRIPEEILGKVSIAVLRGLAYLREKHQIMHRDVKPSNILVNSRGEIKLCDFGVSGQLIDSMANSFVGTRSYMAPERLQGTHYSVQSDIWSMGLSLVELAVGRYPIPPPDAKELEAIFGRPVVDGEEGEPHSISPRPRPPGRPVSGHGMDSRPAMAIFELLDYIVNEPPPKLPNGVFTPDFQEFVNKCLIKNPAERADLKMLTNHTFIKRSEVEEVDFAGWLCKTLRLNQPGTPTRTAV
Serine/threonine-protein kinase ULK2 (Homo sapiens), sequence (Q8IYT8 whole entry): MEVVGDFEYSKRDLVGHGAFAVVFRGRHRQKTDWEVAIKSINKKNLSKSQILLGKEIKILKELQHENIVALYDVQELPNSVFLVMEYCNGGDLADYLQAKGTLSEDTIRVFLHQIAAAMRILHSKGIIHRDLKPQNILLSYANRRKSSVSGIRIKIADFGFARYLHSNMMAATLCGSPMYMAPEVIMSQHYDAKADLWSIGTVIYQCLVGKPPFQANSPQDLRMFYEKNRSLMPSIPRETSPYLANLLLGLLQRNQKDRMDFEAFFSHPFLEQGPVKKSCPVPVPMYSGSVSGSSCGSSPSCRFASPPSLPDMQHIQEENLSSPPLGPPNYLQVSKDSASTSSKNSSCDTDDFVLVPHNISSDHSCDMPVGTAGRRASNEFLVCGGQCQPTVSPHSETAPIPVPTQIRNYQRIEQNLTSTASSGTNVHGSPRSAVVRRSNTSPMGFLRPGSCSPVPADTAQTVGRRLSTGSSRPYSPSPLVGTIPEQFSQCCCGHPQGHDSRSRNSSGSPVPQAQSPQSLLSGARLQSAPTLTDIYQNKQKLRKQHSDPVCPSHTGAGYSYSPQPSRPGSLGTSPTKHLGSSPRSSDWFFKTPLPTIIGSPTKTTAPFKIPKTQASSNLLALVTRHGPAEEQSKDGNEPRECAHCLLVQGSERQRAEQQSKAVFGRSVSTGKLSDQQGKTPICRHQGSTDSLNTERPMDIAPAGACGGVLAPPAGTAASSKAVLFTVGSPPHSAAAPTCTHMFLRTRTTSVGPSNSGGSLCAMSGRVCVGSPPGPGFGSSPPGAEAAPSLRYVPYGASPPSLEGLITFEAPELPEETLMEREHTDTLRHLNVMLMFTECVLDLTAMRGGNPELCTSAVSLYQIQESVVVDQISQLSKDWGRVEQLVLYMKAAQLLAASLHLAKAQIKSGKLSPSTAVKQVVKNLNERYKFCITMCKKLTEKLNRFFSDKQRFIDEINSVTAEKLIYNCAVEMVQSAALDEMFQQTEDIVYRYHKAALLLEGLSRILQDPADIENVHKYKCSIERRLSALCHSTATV
Mitogen-activated protein kinase 14, sequence (Q16539 whole entry): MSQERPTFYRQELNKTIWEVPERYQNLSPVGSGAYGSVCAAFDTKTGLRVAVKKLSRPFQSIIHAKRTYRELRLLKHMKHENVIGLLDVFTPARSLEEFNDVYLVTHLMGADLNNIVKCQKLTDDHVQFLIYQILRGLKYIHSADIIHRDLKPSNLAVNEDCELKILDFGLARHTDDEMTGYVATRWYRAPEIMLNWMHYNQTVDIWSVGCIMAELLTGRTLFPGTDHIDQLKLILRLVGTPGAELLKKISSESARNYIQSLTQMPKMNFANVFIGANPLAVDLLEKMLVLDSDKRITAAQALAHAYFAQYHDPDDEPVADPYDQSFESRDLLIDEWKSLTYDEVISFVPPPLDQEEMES
Serine/threonine-protein kinase Nek6 (Homo sapiens), sequence (Q9HC98 whole entry): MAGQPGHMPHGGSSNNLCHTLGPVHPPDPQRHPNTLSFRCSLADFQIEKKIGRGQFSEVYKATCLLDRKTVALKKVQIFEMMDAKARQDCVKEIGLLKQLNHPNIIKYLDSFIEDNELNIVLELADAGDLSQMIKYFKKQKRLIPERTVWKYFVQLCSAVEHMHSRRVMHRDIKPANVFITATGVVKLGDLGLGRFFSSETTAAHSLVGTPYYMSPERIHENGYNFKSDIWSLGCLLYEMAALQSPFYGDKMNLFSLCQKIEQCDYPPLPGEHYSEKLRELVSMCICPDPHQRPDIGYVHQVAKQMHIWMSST

For orientation: inhibition means the drop in the measured response relative to a control, in per cent. `CCN1CCN(Cc2ccc(NC(=O)c3ccc(C)c(/C=C/c4cnc5[nH]ccc5c4OC)c3)cc2C(F)(F)F)CC1`: in test [1], the % of control was determined as 0.7%. In addition, the inhibition in test [2] was determined as 72%; in [3], 81%; in test [4] it was 73.1%. This molecule came in with a residual activity in test [5] of 100%.
As for `CCN1CCN(Cc2ccc(NC(=O)c3ccc(C)c(Oc4ccnc5[nH]ccc45)c3)cc2C(F)(F)F)CC1`, the inhibition was -2.8% in [6]; 2.9% in [7]; -4.4% in [8]; 41.1% in [10]; -2.7% in test [12]; 32.4% in test [13]. Moreover, the inhibition result in test [9] and in test [11] was “inactive” each time.
Consider `CNc1cc(Oc2cc(C(=O)Nc3cc(N4CCN(C)CC4)cc(C(F)(F)F)c3)ccc2C)ncn1`, for which the inhibition in test [14] was 57.3%; in [15] it was 15.3%; in test [16], -1.3%; in test [17], -2.7%.

The values are drawn from ChEMBL document CHEMBL5696442, “Discovery of type II inhibitors of TGFβ-activated kinase 1 (TAK1) and mitogen-activated protein kinase kinase kinase kinase 2 (MAP4K2)” (J Med Chem, 2015).
